Reference: US12441723B2, “Pyrazole compounds, formulations thereof, and a method for using the compounds and/or formulations” (Rigel Pharmaceuticals, Inc., priority 2019, dated 2025)
Structures can show the parent of a compound that is named as a salt.

Assays:
[1] = Pharmacokinetics in male cynomolgus monkeys (co-crystal capsules, spray-dried dispersion); assay type: in vivo
Protocol: Two groups of male cynomolgus monkeys (n=3/group) were administered test articles in a 3-way crossover design as indicated in Table 2. The washout period between doses was 3-4 days. Test article capsules were prepared such that each capsule contained an equivalent of 25 mg of free base compound I-1. The organic stock solution of compound I-1 was prepared at a concentration of 5 mg/ml using TPGS/PEG400/PG, and was diluted with apple juice within 1 hour of dosing (PO) at 1 part stock solution to 3 parts apple juice.
FIGS. 11-14 provide graphs of the plasma concentrations obtained from administering the co-crystal formulations of compound I-1 to monkeys. And Table 3 provides pharmacokinetic (PK) data for the co-crystal formulations, including the average area under the curve (AUC) and percent bioavailability.
FIG. 19 provides PK data for one embodiment of the disclosed spray-dried formulation, and the organic/juice formulation.

[2] = Physical and chemical stability of salts of I-18, 1 week (XRPD, HPLC purity); assay type: physicochemical; settings: for Area (%) of HPLC peak RRT 1.00: main peak; for Area (%) of HPLC peak RRT 1.17: peak = parent compound formed by hydrolysis; for Form change: XRPD; for Initial purity (area %): HPLC, before storage
Protocol: The physical and chemical stability of the K salt, Arginine salt, Choline salt and Tris salt were evaluated under conditions of 25° C./60% RH and 40° C./75% RH for 1 week. Each sample was added into 3 mL glass vials, sealed by parafilm with several holes, and kept under tested condition. After one week, samples was taken for XRPD and HPLC purity test.

[3] = 25° C./60% RH, 1 week, listed as tris salt
[4] = 40° C./75% RH, 1 week, listed as tris salt
[5] = 25° C./60% RH, 1 week, listed as potassium salt
[6] = 40° C./75% RH, 1 week, listed as potassium salt
[7] = Initial, listed as potassium salt
[8] = 25° C./60% RH, 1 week, listed as choline salt
[9] = 40° C./75% RH, 1 week, listed as choline salt
[10] = Initial, listed as choline salt

CCO[C@H]1CC[C@H](n2cc(NC(=O)c3csc(-c4cn[nH]c4)n3)c(-c3nc(F)ccc3F)n2)CC1.O=C(O)C(O)C(O)C(=O)O [I-11, N-(3-(3,6-difluoropyridin-2-yl)-1-((1r,4r)-4-ethoxycyclohexyl)-1H-pyrazol-4-yl)-2-(1H-pyrazol-4-yl)thiazole-4-carboxamide hemi-tartrate salt]
% F (percent bioavailability) ([1]; n=3, capsule with equivalent of 25 mg free base compound I-1): 24.7%

CCO[C@H]1CC[C@H](n2cc(NC(=O)c3csc(-c4cnn(C(C)OP(=O)(O)O)c4)n3)c(-c3nc(F)ccc3F)n2)CC1 (stereo partly drawn) [I-49, 1-(4-(4-((3-(3,6-difluoropyridin-2-yl)-1-((1r,4r)-4-ethoxycyclohexyl)-1H-pyrazol-4-yl)carbamoyl)thiazol-2-yl)-1H-pyrazol-1-yl)ethyl dihydrogen phosphate tris salt]
Area (%) of HPLC peak RRT 1.13 ([2]; 25° C./60% RH, 1 week): 0.06% | Area (%) of HPLC peak RRT 0.77 [2, 3]: <0.03% | Area (%) of HPLC peak RRT 1.45 [2, 3]: 0.35% | Area (%) of HPLC peak RRT 1.71 [2, 3]: 0.80% | Area (%) of HPLC peak RRT 1.73 [2, 3]: 0.55% | HPLC purity change [2, 3]: no HPLC purity decrease | Area (%) of HPLC peak RRT 1.00 [2, 3]: 96.61% | Area (%) of HPLC peak RRT 1.17 [2, 3]: 1.63% | Form change ([2]; 25° C./60% RH/1 week, listed as Tris salt): no form change and No | Area (%) of HPLC peak RRT 0.77 [2, 4]: 0.03% | Area (%) of HPLC peak RRT 1.45 [2, 4]: 0.47% | Area (%) of HPLC peak RRT 1.71 [2, 4]: 0.88% | Area (%) of HPLC peak RRT 1.73 [2, 4]: 0.84% | HPLC purity change [2, 4]: a purity decrease was observed | Area (%) of HPLC peak RRT 1.00 [2, 4]: 95.03% | Area (%) of HPLC peak RRT 1.17 [2, 4]: 2.69% | Form change ([2]; 40° C./75% RH/1 week, listed as Tris salt): no form change and No | Initial purity (area %) ([2]; listed as Tris salt): 96.06 area % | Area (%) of HPLC peak RRT 0.77 ([2]; Initial, listed as tris salt): <0.03% | Area (%) of HPLC peak RRT 1.13 ([2]; Initial, listed as tris salt): 0.07% | Area (%) of HPLC peak RRT 1.45 ([2]; Initial, listed as tris salt): 0.37% | Area (%) of HPLC peak RRT 1.71 ([2]; Initial, listed as tris salt): 0.86% | Area (%) of HPLC peak RRT 1.73 ([2]; Initial, listed as tris salt): 0.76% | Area (%) of HPLC peak RRT 1.00 ([2]; Initial, listed as tris salt): 96.06% | Area (%) of HPLC peak RRT 1.17 ([2]; Initial, listed as tris salt): 1.87%

CCO[C@H]1CC[C@H](n2cc(NC(=O)c3csc(-c4cn[nH]c4)n3)c(-c3nc(F)ccc3F)n2)CC1 [I-104, N-(3-(3,6-difluoropyridin-2-yl)-1-((1r,4r)-4-ethoxycyclohexyl)-1H-pyrazol-4-yl)-2-(1H-pyrazol-4-yl)thiazole-4-carboxamide phosphate]
bioavailability ([1]; cynomolgus monkey, plasma, po, n=3, capsule with equivalent of 25 mg free base compound I-1, read-out: % F (percent bioavailability)): 7.9% | AUC(0-t) ([1]; cynomolgus monkey, po, n=3, capsule with equivalent of 25 mg free base compound I-1, plasma, normalized to 5 mg/kg of compound I-1, read-out: Average AUC0-24 h ± SD (5 mg/kg basis)): 921 ± 446 ng·h/mL

CCO[C@H]1CC[C@H](n2cc(NC(=O)c3csc(-c4cn[nH]c4)n3)c(-c3nc(F)ccc3F)n2)CC1 [I-105, N-(3-(3,6-difluoropyridin-2-yl)-1-((1r,4r)-4-ethoxycyclohexyl)-1H-pyrazol-4-yl)-2-(1H-pyrazol-4-yl)thiazole-4-carboxamide gentisate]
% F (percent bioavailability) ([1]; n=3, capsule with equivalent of 25 mg free base compound I-1, listed as Gentisate cocystal): 9.8%

CCO[C@H]1CC[C@H](n2cc(NC(=O)c3csc(-c4cn[nH]c4)n3)c(-c3nc(F)ccc3F)n2)CC1 [I-106, N-(3-(3,6-difluoropyridin-2-yl)-1-((1r,4r)-4-ethoxycyclohexyl)-1H-pyrazol-4-yl)-2-(1H-pyrazol-4-yl)thiazole-4-carboxamide succinate]
% F (percent bioavailability) ([1]; n=3, capsule with equivalent of 25 mg free base compound I-1, listed as Succinate co-crystal): 12.7%

CCO[C@H]1CC[C@H](n2cc(NC(=O)c3csc(-c4cnn(C(C)OP(=O)(O)O)c4)n3)c(-c3nc(F)ccc3F)n2)CC1 (stereo partly drawn) [I-108, potassium 1-(4-(4-((3-(3,6-difluoropyridin-2-yl)-1-((1r,4r)-4-ethoxycyclohexyl)-1H-pyrazol-4-yl)carbamoyl)thiazol-2-yl)-1H-pyrazol-1-yl)ethyl hydrogen phosphate]
Area (%) of HPLC peak RRT 1.14 ([2]; 25° C./60% RH, 1 week): <0.04% | Area (%) of HPLC peak RRT 1.40 ([2]; 25° C./60% RH, 1 week): 0.25% | Area (%) of HPLC peak RRT 1.44 ([2]; 25° C./60% RH, 1 week): 0.30% | Area (%) of HPLC peak RRT 1.70 ([2]; 25° C./60% RH, 1 week): 0.27% | Area (%) of HPLC peak RRT 1.72 ([2]; 25° C./60% RH, 1 week): 0.78% | Area (%) of HPLC peak RRT 1.81 ([2]; 25° C./60% RH, 1 week): <0.04% | HPLC purity change ([2]; 25° C./60% RH, 1 week, listed as K salt): slight purity decrease | Area (%) of HPLC peak RRT 1.00 [2, 5]: 96.26% | Area (%) of HPLC peak RRT 1.17 [2, 5]: 2.14% | Form change ([2]; 25° C./60% RH/1 week, listed as K salt): no form change and No | Area (%) of HPLC peak RRT 1.14 ([2]; 40° C./75% RH, 1 week): 0.05% | Area (%) of HPLC peak RRT 1.40 ([2]; 40° C./75% RH, 1 week): 0.39% | Area (%) of HPLC peak RRT 1.44 ([2]; 40° C./75% RH, 1 week): 0.24% | Area (%) of HPLC peak RRT 1.70 ([2]; 40° C./75% RH, 1 week): 0.24% | Area (%) of HPLC peak RRT 1.72 ([2]; 40° C./75% RH, 1 week): 0.83% | Area (%) of HPLC peak RRT 1.81 ([2]; 40° C./75% RH, 1 week): 0.04% | HPLC purity change ([2]; 40° C./75% RH, 1 week, listed as K salt): slight purity decrease | Area (%) of HPLC peak RRT 1.00 [2, 6]: 96.40% | Area (%) of HPLC peak RRT 1.17 [2, 6]: 1.80% | Form change ([2]; 40° C./75% RH/1 week, listed as K salt): a form change was observed and Yes | Initial purity (area %) ([2]; listed as K salt): 97.27 area % | Area (%) of HPLC peak RRT 1.14 ([2]; Initial): <0.04% | Area (%) of HPLC peak RRT 1.40 ([2]; Initial): 0.23% | Area (%) of HPLC peak RRT 1.44 ([2]; Initial): 0.21% | Area (%) of HPLC peak RRT 1.70 ([2]; Initial): 0.18% | Area (%) of HPLC peak RRT 1.72 ([2]; Initial): 0.77% | Area (%) of HPLC peak RRT 1.81 ([2]; Initial): <0.04% | Area (%) of HPLC peak RRT 1.00 [2, 7]: 97.27% | Area (%) of HPLC peak RRT 1.17 [2, 7]: 1.33%

CCO[C@H]1CC[C@H](n2cc(NC(=O)c3csc(-c4cnn(C(C)OP(=O)(O)O)c4)n3)c(-c3nc(F)ccc3F)n2)CC1 (stereo partly drawn) [I-111, 1-(4-(4-((3-(3,6-difluoropyridin-2-yl)-1-((1r,4r)-4-ethoxycyclohexyl)-1H-pyrazol-4-yl)carbamoyl)thiazol-2-yl)-1H-pyrazol-1-yl)ethyl dihydrogen phosphate choline salt]
Area (%) of HPLC peak RRT 0.77 [2, 8]: 0.04% | Area (%) of HPLC peak RRT 1.35 [2, 8]: 0.10% | Area (%) of HPLC peak RRT 1.45 [2, 8]: 0.07% | Area (%) of HPLC peak RRT 1.71 [2, 8]: 0.05% | Area (%) of HPLC peak RRT 1.73 [2, 8]: 0.46% | HPLC purity change [2, 8]: no HPLC purity decrease | Area (%) of HPLC peak RRT 1.00 [2, 8]: 98.66% | Area (%) of HPLC peak RRT 1.17 [2, 8]: 0.58% | Purity/Initial purity (%) ([2]; 25° C./60% RH/1 week): 100.0% | Form change ([2]; 25° C./60% RH/1 week, listed as Choline salt): no form change and No | Area (%) of HPLC peak RRT 0.77 [2, 9]: 0.04% | Area (%) of HPLC peak RRT 1.35 [2, 9]: 0.14% | Area (%) of HPLC peak RRT 1.45 [2, 9]: 0.11% | Area (%) of HPLC peak RRT 1.71 [2, 9]: 0.08% | Area (%) of HPLC peak RRT 1.73 [2, 9]: 0.46% | HPLC purity change [2, 9]: a purity decrease was observed | Area (%) of HPLC peak RRT 1.00 [2, 9]: 97.81% | Area (%) of HPLC peak RRT 1.17 [2, 9]: 1.31% | Form change ([2]; 40° C./75% RH/1 week, listed as Choline salt): no form change and No | Initial purity (area %) ([2]; listed as Choline salt): 98.70 area % | Area (%) of HPLC peak RRT 1.35 ([2]; Initial): <0.03% | Area (%) of HPLC peak RRT 0.77 [2, 10]: 0.03% | Area (%) of HPLC peak RRT 1.13 [2, 10]: 0.06% | Area (%) of HPLC peak RRT 1.45 [2, 10]: 0.06% | Area (%) of HPLC peak RRT 1.71 [2, 10]: 0.06% | Area (%) of HPLC peak RRT 1.73 [2, 10]: 0.33% | Area (%) of HPLC peak RRT 1.00 [2, 10]: 98.70% | Area (%) of HPLC peak RRT 1.17 [2, 10]: 0.75%
